Measured values taken from PubChem BioAssay AID1963975 (Molecular Pharmacology Branch, DTP, NCI, 2024).

System: 624824-186-R-J2-PDC multicell spheroids, viability
Experiment: Anticancer human tumor 624824-186-R-J2-PDC patient-derived colon adenocarcinoma cell line growth inhibition [PI3K]
Details: for viability, T/C: stronger effect = lower value
How it was run: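 Spheroid viability read-out. Co-cultures contained the tumor line plus HUVEC and human MSCs. Each agent was paired with a PI3K inhibitor (inavolisib, alpelisib, duvelisib, copanlisib) across half-log dilutions starting at clinical Cmax, or at 10 microM when Cmax was unknown.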

[1] = curve of first compound, second compound 0.0316 µM
[2] = curve of first compound, second compound 0.1 µM
[3] = curve of first compound, second compound 0.316 µM
[4] = curve of first compound, second compound 1 µM
[5] = curve of first compound, second compound 3.16 µM
[6] = curve of first compound, second compound 10 µM
[7] = second compound 0.0316 µM, first compound 0.0316 µM
[8] = second compound 0.0316 µM, first compound 0.1 µM
[9] = second compound 0.0316 µM, first compound 0.316 µM
[10] = second compound 0.0316 µM, first compound 1 µM
[11] = second compound 0.0316 µM, first compound 3.16 µM
[12] = second compound 0.0316 µM, first compound 10 µM
[13] = second compound 0.1 µM, first compound 0.0316 µM
[14] = second compound 0.1 µM, first compound 0.1 µM
[15] = second compound 0.1 µM, first compound 0.316 µM
[16] = second compound 0.1 µM, first compound 1 µM
[17] = second compound 0.1 µM, first compound 3.16 µM
[18] = second compound 0.1 µM, first compound 10 µM
[19] = second compound 0.316 µM, first compound 0.0316 µM
[20] = second compound 0.316 µM, first compound 0.1 µM
[21] = second compound 0.316 µM, first compound 0.316 µM
[22] = second compound 0.316 µM, first compound 1 µM
[23] = second compound 0.316 µM, first compound 3.16 µM
[24] = second compound 0.316 µM, first compound 10 µM
[25] = second compound 1 µM, first compound 0.0316 µM
[26] = second compound 1 µM, first compound 0.1 µM
[27] = second compound 1 µM, first compound 0.316 µM
[28] = second compound 1 µM, first compound 1 µM
[29] = second compound 1 µM, first compound 3.16 µM
[30] = second compound 1 µM, first compound 10 µM
[31] = second compound 3.16 µM, first compound 0.0316 µM
[32] = second compound 3.16 µM, first compound 0.1 µM
[33] = second compound 3.16 µM, first compound 0.316 µM
[34] = second compound 3.16 µM, first compound 1 µM
[35] = second compound 3.16 µM, first compound 3.16 µM
[36] = second compound 3.16 µM, first compound 10 µM
[37] = second compound 10 µM, first compound 0.0316 µM
[38] = second compound 10 µM, first compound 0.1 µM
[39] = second compound 10 µM, first compound 0.316 µM
[40] = second compound 10 µM, first compound 1 µM
[41] = second compound 10 µM, first compound 3.16 µM
[42] = second compound 10 µM, first compound 10 µM
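Also: spheroids exposed to agents for 7 days before viability read.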
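For viability, T/C in this document: 100% = DMSO vehicle treated spheroids.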

For CC(Cn1ccc(-c2ccc(C#N)c(Cl)c2)n1)NC(=O)c1cc(C(C)O)[nH]n1 (stereo not given) + Cc1nc(NC(=O)N2CCCC2C(N)=O)sc1-c1ccnc(C(C)(C)C(F)(F)F)c1, the IC50 [1] was > 10 µM, the IC50 [2] was > 10 µM and the IC50 [3] was > 10 µM. The IC50 [4] was > 10 µM, the IC50 [5] was > 10 µM and the IC50 [6] was > 10 µM. It also gave a viability, T/C [7] of 85.3%, a viability, T/C [8] of 111% and a viability, T/C [9] of 70.8%. It also gave a viability, T/C [10] of 92.2%, a viability, T/C [11] of 93.3% and a viability, T/C [12] of 114%. For the same compound, the viability, T/C [13] was 102%, the viability, T/C [14] was 76.3% and the viability, T/C [15] was 74.3%. The viability, T/C [16] was 76.6%, the viability, T/C [17] was 88.2% and the viability, T/C [18] was 90%. The viability, T/C [19] was 96.9%, the viability, T/C [20] was 90.5% and the viability, T/C [21] was 86.1%. The viability, T/C [22] was 76.9%, the viability, T/C [23] was 82.5% and the viability, T/C [24] was 85.7%. The viability, T/C [25] was 88.6%, the viability, T/C [26] was 69.9% and the viability, T/C [27] was 71.5%. For the same compound, the viability, T/C [28] was 71.6%, the viability, T/C [29] was 87.9% and the viability, T/C [30] was 86.9%. For the same compound, the viability, T/C [31] was 80.5%, the viability, T/C [32] was 93% and the viability, T/C [33] was 89.7%. For the same compound, the viability, T/C [34] was 78.7%, the viability, T/C [35] was 80.2% and the viability, T/C [36] was 84.7%. It also gave a viability, T/C [37] of 64.8%, a viability, T/C [38] of 65.2% and a viability, T/C [39] of 74.8%. The viability, T/C [40] was 61.4%, the viability, T/C [41] was 69.6% and the viability, T/C [42] was 66.6%.
For CC(C)NCC(C(=O)N1CCN(c2ncnc3c2C(C)CC3O)CC1)c1ccc(Cl)cc1 (stereo not given) + CC(Nc1ncnc2nc[nH]c12)c1cc2cccc(Cl)c2c(=O)n1-c1ccccc1, the IC50 [1] was > 10 µM, the IC50 [2] was > 10 µM and the IC50 [3] was > 10 µM. For the same compound, the IC50 [4] was > 10 µM, the IC50 [5] was > 10 µM and the IC50 [6] was > 10 µM. The viability, T/C [7] was 86.1%, the viability, T/C [8] was 87.8% and the viability, T/C [9] was 75.5%. It also gave a viability, T/C [10] of 89.6%, a viability, T/C [11] of 88.4% and a viability, T/C [12] of 89.4%. For the same compound, the viability, T/C [13] was 111%, the viability, T/C [14] was 84.9% and the viability, T/C [15] was 88.4%. It also gave a viability, T/C [16] of 82.2%, a viability, T/C [17] of 85% and a viability, T/C [18] of 86.6%. It also gave a viability, T/C [19] of 112%, a viability, T/C [20] of 113% and a viability, T/C [21] of 71.3%. The viability, T/C [22] was 95.6%, the viability, T/C [23] was 81% and the viability, T/C [24] was 74.7%. It also gave a viability, T/C [25] of 106%, a viability, T/C [26] of 96.2% and a viability, T/C [27] of 99.4%. For the same compound, the viability, T/C [28] was 85%, the viability, T/C [29] was 90.8% and the viability, T/C [30] was 89.3%. For the same compound, the viability, T/C [31] was 85.6%, the viability, T/C [32] was 104% and the viability, T/C [33] was 100%. For the same compound, the viability, T/C [34] was 82.1%, the viability, T/C [35] was 88.1% and the viability, T/C [36] was 87.2%. The viability, T/C [37] was 98.7%, the viability, T/C [38] was 108% and the viability, T/C [39] was 103%. It also gave a viability, T/C [40] of 88.1%, a viability, T/C [41] of 75.5% and a viability, T/C [42] of 71.4%.
For CC(Nc1ccc2c(c1)OCCn1cc(N3C(=O)OCC3C(F)F)nc1-2)C(N)=O (stereo not given), the viability, T/C (compound 0.01 µM) was 95% [middle of 8 runs], the viability, T/C (compound 0.0316 µM) was 84.8% [middle of 8 runs] and the viability, T/C (compound 0.1 µM) was 90.3% [middle of 8 runs]. The viability, T/C (compound 0.316 µM) was 89.7% [middle of 8 runs], the viability, T/C (compound 1 µM) was 95.2% [middle of 8 runs] and the IC50 (compound alone, run of 06/12/2023) was > 1 µM.
With CC(=O)c1c(C)c2cnc(Nc3ccc(N4CCNCC4)cn3)nc2n(C2CCCC2)c1=O the viability, T/C (compound 0.00316 µM) was 93.5% [middle of 4 runs], the viability, T/C (compound 0.1 µM) was 87.5% [middle of 4 runs] and the IC50 (curve of compound) was > 0.1 µM.
CC(C)NCC(C(=O)N1CCN(c2ncnc3c2C(C)CC3O)CC1)c1ccc(Cl)cc1 (stereo not given) + COc1c(OCCCN2CCOCC2)ccc2c3n(c(=NC(=O)c4cnc(N)nc4)nc12)CCN3 was tested, and the IC50 (curve of first compound, second compound 0.00316 µM) was > 10 µM, the IC50 (curve of first compound, second compound 0.01 µM) was > 10 µM and the IC50 [1] was > 10 µM. The IC50 [2] was > 10 µM, the IC50 [3] was > 10 µM and the IC50 [4] was > 10 µM. For the same compound, the viability, T/C (second compound 0.00316 µM, first compound 0.0316 µM) was 117%, the viability, T/C (second compound 0.00316 µM, first compound 0.1 µM) was 85% and the viability, T/C (second compound 0.00316 µM, first compound 0.316 µM) was 81.3%. The viability, T/C (second compound 0.00316 µM, first compound 1 µM) was 89.2%, the viability, T/C (second compound 0.00316 µM, first compound 3.16 µM) was 78.7% and the viability, T/C (second compound 0.00316 µM, first compound 10 µM) was 75.2%. For the same compound, the viability, T/C (second compound 0.01 µM, first compound 0.0316 µM) was 97.2%, the viability, T/C (second compound 0.01 µM, first compound 0.1 µM) was 96.4% and the viability, T/C (second compound 0.01 µM, first compound 0.316 µM) was 85.7%. For the same compound, the viability, T/C (second compound 0.01 µM, first compound 1 µM) was 77.4%, the viability, T/C (second compound 0.01 µM, first compound 3.16 µM) was 87.4% and the viability, T/C (second compound 0.01 µM, first compound 10 µM) was 79.8%. For the same compound, the viability, T/C [7] was 91.6%, the viability, T/C [8] was 84.5% and the viability, T/C [9] was 73.6%. The viability, T/C [10] was 89.7%, the viability, T/C [11] was 70.5% and the viability, T/C [12] was 78.3%. For the same compound, the viability, T/C [13] was 76%, the viability, T/C [14] was 75.5% and the viability, T/C [15] was 68.7%. It also gave a viability, T/C [16] of 63.2%, a viability, T/C [17] of 77.4% and a viability, T/C [18] of 64.7%. The viability, T/C [19] was 60.1%, the viability, T/C [20] was 66% and the viability, T/C [21] was 62.1%. The viability, T/C [22] was 67.3%, the viability, T/C [23] was 62.3% and the viability, T/C [24] was 66.3%. The viability, T/C [25] was 58.6%, the viability, T/C [26] was 54.3% and the viability, T/C [27] was 62.4%. The viability, T/C [28] was 61.7%, the viability, T/C [29] was 65% and the viability, T/C [30] was 56.5%.
